Laboratory results from patent US10420744B2, “Composition of chlorogenic acid and methods of making and using the same in treating serum lipid levels” (Vidya Herbs, Inc., priority 2014, dated 2019).
Marks after values point to notes of the source that are not given here.

Tested on: high fat diet fed rats
Assay: Anti-obesity activity, high fat diet in rats
Assay type: in vivo, Wistar rats
Conditions: Group III: high fat diet + orlistat 30 mg/kg
Protocol: Objective: The objective was to investigate the effect of the CGA-7 complex against high fat diet fed rats. Model: High fat diet in rats […] Male Wistar rats were divided into six groups with six animals in each group. [table] Body weight was measured once every 2 days. Food intake was measured daily for 42 days. On day 43, all the animals were kept overnight fasting before sacrifice. Blood was collected by puncturing the retro orbital plexus. Serum was separated by centrifugation at 3000 rpm for 10 minutes. Serum was estimated for glucose, cholesterol, triglycerides and HDL. LDL and atherogenic index were also calculated. Liver, mesenteric, brown adipose tissue (BAT), left and right perirenal fat pads, left and right epididymal pads were isolated and weighed. Liver was isolated and estimated for liver triglycerides and cholesterol levels.

SMILES: CCCCCCCCCCC[C@@H](C[C@@H]1OC(=O)[C@H]1CCCCCC)OC(=O)[C@H](CC(C)C)NC=O [orlistat, Orlistat]
- liver cholesterol: 49.66 ± 3.28***^b
- liver triglycerides: 64.64 ± 3.44***^b
- Average food intake (42 days): 8.54 ± 0.40^nsb g/rat
- BAT (42 days): 0.19 ± 0.01**^b
- Difference in body weight (42 days): 88.01 ± 3.68***^b
- Epididymal fat pad Left (42 days): 0.50 ± 0.01**^b
- Epididymal fat pad Right (42 days): 0.48 ± 0.01*^b
- Liver organ weight (42 days): 3.47 ± 0.11***^b
- Mesenteric fat (42 days): 0.98 ± 0.03*^b
- Peri renal fat pad tissue Left (42 days): 0.61 ± 0.05*^b
- Peri renal fat pad tissue Right (42 days): 0.65 ± 0.04*^b
- Initial weight (baseline, in g (unit assumed)): 130.3 ± 0.56
- Atherogenic Index (calculated): 2.20 ± 0.20***^b
- serum Glucose (day 43): 109.7 ± 3.93**^b mg/dL
- serum HDL-c (day 43): 20.47 ± 1.08*^b mg/dL
- serum Total cholesterol (day 43): 63.38 ± 0.95***^b mg/dL
- serum Triglyceride (day 43): 77.63 ± 4.27***^b mg/dL
- serum LDL-c (day 43, calculated): 27.39 ± 1.07^nsb mg/dL
- Final weight (male Wistar rats, 42 days, in g (unit assumed)): 218.4 ± 2.65
